# Entries after “also recorded” stand apart in the source; their conditions may differ. Where no end group is shown, it is not given here.
# Test system: EGF-induced response of quiescent A431 cells
# Experiment: Effect of compound pretreatment on EGF-induced DMR response
# Format: cell-based, human
# Conditions: not given
# Procedure: Both A431 and CHO-K1 cells were grown in Dulbecco's modified Eagle's medium (DMEM) supplemented with 10% fetal calf serum, 100 μg/ml penicillin, and 100 μg/ml streptomycin. For cell culture, certain numbers of cells (2×10^5 to 1×10^6), either A431 or CHO-K1, were suspended in […] medium were placed in each well of a 96 well Corning Epic Biosensor microplate, and were cultured at 37° C. in air/5% CO2 for certain time until the cell density reached ˜90% and above (unless specified). The resulted cells were termed as “profilerating” cells. The “quiescent” cells were obtained by culturing the profilerating cells of desired confluencies with a medium containing no or little (˜0.1% fetal bovine serum (FBS)) for at least 16 hours.
# During the assays, the cells in 100 μl medium were subject to two 25 μl HBSS buffer containing 20 mM HEPES, pH 7.4, each separated by at least 15 minutes before 50 μl stimulus-containing solution was applied. During all these steps, a parallel angular interrogation system was used to monitor the real time kinetics of cellular responses. For compound effect studies, a modified protocol was used which starts with 50 μl medium, and subject to sequential treatment: 25 μl HBSS buffer twice (each separated by at least 15 minutes), 50 μl compound solution and finally 50 μl stimulus-containing solution.
row,Compound,Effect of pretreatment on 32 nM EGF-induced response
1,C[S+]([O-])c1ccc(-c2nc(-c3ccncc3)c(-c3ccc(F)cc3)[nH]2)cc1 (centres unmarked) [SB203580],only led to a partial attenuation
2,N#CC(=C(/N)Sc1ccccc1N)/C(C#N)=C(\N)Sc1ccccc1N [U0126],significantly compressed the amplitudes of both the P-DMR and N-DMR signals with a delayed time τ

# Same assay, conditions: quiescent A431 cells; 32 nM EGF
row,Compound,Effect of pretreatment on 32 nM EGF-induced response
1,CN(C(=O)CCCOc1ccc2[nH]c(=O)ccc2c1)C1CCCCC1 [cilostamide],None of these inhibitors had an obvious effect on the responses
2,Cc1[nH]c(=O)c(C#N)cc1-c1ccncc1 [milrinone],None of these inhibitors had an obvious effect on the responses
3,Oc1ccc(-c2nc(-c3ccc(F)cc3)c(-c3ccncc3)[nH]2)cc1 [SB20219],only led to a partial attenuation
4,R(−)-rolipram,None of these inhibitors had an obvious effect on the responses
5,CCCCOc1cc(CC2CNC(=O)N2)ccc1OC (centres unmarked) [Ro 20-1724],None of these inhibitors had an obvious effect on the responses
6,COC(=O)[C@@]1(OC)C[C@H]2O[C@]1(C)n1c3ccccc3c3c4c(c5c6ccccc6n2c5c31)C(=O)N(C)C4 [KT5823],little effect on the response
7,CCCCCCOC(=O)[C@]1(O)C[C@@H]2O[C@@]1(C)n1c3ccccc3c3c4c(c5c6ccccc6n2c5c31)C(=O)NC4 [KT 5720],little effect on the response

# Same assay, conditions: starved A431 cells; 8 nM EGF; 30-minute pretreatment; GH 0.5 ng/ml, PD98059 0.1 mM, PP1 1 μM, wortmannin 0.1 μM, DIP 50 μM
row,Compound,Effect of pre-treatment on EGF-induced P-DMR and N-DMR signals
1,COc1cccc(-c2cc(=O)c3ccccc3o2)c1N [PD98059],significantly reduced both the binding and DMR signals
2,growth hormone,significantly reduced both the binding and DMR signals

# Test system: endogenous GPCRs in A431 cells
# Experiment: DMR optical biosensor profiling of GPCR agonists
# Format: cell-based, human
# Conditions: fully quiescent A431 cells
row,Compound,Dose-dependent switching of optical signature
1,oleoyl-L-α-lysophosphatidic acid [LPA],typical Gi-type optical signature at low doses of LPA; also recorded: switched to Gq-type optical signature at high doses of LPA
2,CC(CCCCC(=O)Nc1ccc(C(F)(F)F)cc1)NCCc1cnc[nH]1 (centres unmarked) [HTMT],"At low doses (<˜40 nM), HTMT dose-dependently resulted in a typical Gi-type optical signature; also recorded: became almost steady (i.e., no obvious DMR); also recorded: switching to a typical Gs-type optical signature"

# Same assay, conditions: quiescent A431; first class = Gq-type, second = Gs-type, third = Gi-type, fourth = no significant DMR
row,Compound,Class of optical signature (DMR) induced by agonist
1,CC(C)NCC(O)c1ccc(O)c(O)c1 (centres unmarked) [isoprenternol],second class of optical signatures
2,NC[C@@H]1O[C@H](C23CC4CC(CC(C4)C2)C3)Cc2c1ccc(O)c2O [A-77636],did not exhibited any significant DMR signals
3,"neurokinin A (HKTDSFVGLM; ends and bridges not checked; UniProt P20366 98-107, looked up) [agonist, TACR2]",did not exhibited any significant DMR signals
4,Brc1c(NC2=NCCN2)ccc2nccnc12 [UK14304],did not exhibited any significant DMR signals
5,CC[C@H](C)[C@H](NC(=O)[C@@H]1CCCN1C(=O)[C@@H](NC(=O)[C@@H](N)Cc1ccccc1)C(C)C)C(=O)N[C@@H](Cc1ccccc1)C(=O)N[C@H](C(=O)N[C@@H](Cc1ccc(O)cc1)C(=O)NCC(=O)N[C@@H](CCC(=O)O)C(=O)N[C@@H](CC(C)C)C(=O)N[C@@H](CCC(N)=O)C(=O)N[C@@H](CCCNC(=N)N)C(=O)N[C@@H](CCSC)C(=O)N[C@@H](CCC(N)=O)C(=O)N[C@@H](CCC(=O)O)C(=O)N[C@@H](CCCCN)C(=O)N[C@@H](CCC(=O)O)C(=O)N[C@@H](CCCNC(=N)N)C(=O)N[C@@H](CC(N)=O)C(=O)N[C@@H](CCCCN)C(=O)NCC(=O)N[C@@H](CCC(N)=O)C(=O)O)[C@@H](C)O [motilin],did not exhibited any significant DMR signals
6,Cc1cc(C(C)(C)C)c(O)c(C)c1CC1=NCCN1 [oxymetazoline],did not exhibited any significant DMR signals
7,"substance P (RPKPQQFFGLM; ends and bridges not checked; UniProt P20366 58-68, looked up) [agonist, TACR1]",did not exhibited any significant DMR signals
8,interleukin-8,did not exhibited any significant DMR signals
9,"Angiotensin II (DRVYIHPF; Angiotensin-2; UniProt P01019 25-32, looked up) [agonist, AGTR1]",did not exhibited any significant DMR signals
10,C[C@@H](NC(=O)[C@@H](N)Cc1ccc(O)cc1)C(=O)NCC(=O)N(C)[C@@H](Cc1ccccc1)C(=O)NCCO [DAMGO],did not exhibited any significant DMR signals
11,"endothelin-1 (CSCSSLMDKECVYFCHLDIIW; ends and bridges not checked; cysteine pairing not given here; UniProt P05305 53-73, looked up) [agonist, EDNRA and EDNRB]",did not exhibited any significant DMR signals
12,"dynorphin A (YGGFLRRIRPKLKWDNQ; Dynorphin A(1-17); UniProt P01213 207-223, looked up) [agonist, OPRM1 and OPRK1]",did not exhibited any significant DMR signals
13,Oc1cc2c(cc1O)C(c1ccccc1)CNCC2 (centres unmarked) [SKF38392],did not exhibited any significant DMR signals
14,apelin 1-17,did not exhibited any significant DMR signals
15,glucagon,did not exhibited any significant DMR signals
16,"neuromedin N (IPYIL; Neuromedin N; UniProt P30990 144-148, looked up) [agonist, NTSR1]",did not exhibited any significant DMR signals
17,interferon-γ-inducible protein-10 [IP-10],did not exhibited any significant DMR signals
18,oleoyl-L-α-lysophosphatidic acid [LPA],third class of optical signatures
19,CCCCC/C=C\C/C=C\C/C=C\C/C=C\CCCC(=O)NCCO [anandamide],did not exhibited any significant DMR signals
20,neuropeptide Y,did not exhibited any significant DMR signals
21,apelin 1-13,did not exhibited any significant DMR signals
22,CN1CCC(c2c[nH]c3ccc(O)cc23)CC1 [BRL 54443],did not exhibited any significant DMR signals
23,CNC[C@H](O)c1ccc(O)c(O)c1 [epinephrine],second class of optical signatures

# Test system: protease activated receptors PAR1 and PAR2
# Experiment: not given
# Format: cell-based, human
# Conditions: 40 unit/ml thrombin, 200 nM trypsin; αCD up to 8 mM
# Procedure: Human epidermoid carcinoma A431 cells (American Type Cell Culture) were grown in Dulbecco's modified Eagle's medium (DMEM) supplemented with 10% fetal bovine serum (FBS), 4.5 g/liter glucose, 2 mM glutamine, and antibiotics. ˜3-7.5×10^4 cells at passage 3 to 5 suspended in 200 μl the DMEM medium containing 10% FBS were placed in each well of a 96 well microplate, and were cultured at 37° C. under air/5% CO2 until ˜95% confluency was reached (˜2-4 days).
# The compound or PAR agonist solutions were made in 1×HBSS in order to match the refractive index between the cell medium and compound solution, thus minimizing the unwanted effect of bulk index change due to the introduction of compound solution which can temporarily overwhelms any DMR signal as it occurs.
row,Compound,Effect of pretreatment on DMR induced by thrombin or trypsin
1,"OC[C@H]1O[C@@H]2O[C@H]3[C@H](O)[C@@H](O)[C@@H](O[C@H]4[C@H](O)[C@@H](O)[C@@H](O[C@H]5[C@H](O)[C@@H](O)[C@@H](O[C@H]6[C@H](O)[C@@H](O)[C@@H](O[C@H]7[C@H](O)[C@@H](O)[C@@H](O[C@H]1[C@H](O)[C@H]2O)O[C@@H]7CO)O[C@@H]6CO)O[C@@H]5CO)O[C@@H]4CO)O[C@@H]3CO [αCD, α-cyclodextrin]",little effect on both agonist-induced DMR responses
2,methyl-β-cyclodextrin [mβCD],a dose-dependent alteration of the optical signatures induced by thrombin or trypsin

# Same assay, conditions: high doses (>10 mM)
row,Compound,Cell detachment
1,"OC[C@H]1O[C@@H]2O[C@H]3[C@H](O)[C@@H](O)[C@@H](O[C@H]4[C@H](O)[C@@H](O)[C@@H](O[C@H]5[C@H](O)[C@@H](O)[C@@H](O[C@H]6[C@H](O)[C@@H](O)[C@@H](O[C@H]7[C@H](O)[C@@H](O)[C@@H](O[C@H]1[C@H](O)[C@H]2O)O[C@@H]7CO)O[C@@H]6CO)O[C@@H]5CO)O[C@@H]4CO)O[C@@H]3CO [αCD, α-cyclodextrin]",resulted in significant amounts of cells detached from the surface of the biosensors

# Test system: protease activated receptors PAR1 and PAR2
# Experiment: Fluo-3 Ca2+ mobilization assay with PAR agonists
# Format: cell-based, human
# Conditions: cholesterol depletion; αCD up to 8 mM
# Procedure: A431 at passage 3 to 5 were grown in Costar™ 96 well clear cell culture microplates until ˜95% confluency, washed twice and starved overnight with the DMEM only, washed with 1×HBSS (1× regular Hank's balanced salt solution, 20 mM HEPES buffer, pH 7.0) in the presence of 2.5 mM probenicid, and labeled in the same buffer containing 4 μM Fluo-3 for 1 hour at room temperature. The cells were then washed twice with buffer, maintained with 100 μl 1×HBSS containing 2.5 mM probenicid. The assay was initiated by transferring 50 μl PAR agonist solution to the cell plate, and calcium signal was recorded over 6 minutes with a 6 sec interval using HTS7000 BioAssay Reader (PerkinElmer Life Science, Boston, Mass.). The assays were carried out at room temperature in order to allow direct comparison with optical sensing data.
row,Compound,Effect of pretreatment on [Ca2+]i elevation mediated by trypsin or thrombin
1,"OC[C@H]1O[C@@H]2O[C@H]3[C@H](O)[C@@H](O)[C@@H](O[C@H]4[C@H](O)[C@@H](O)[C@@H](O[C@H]5[C@H](O)[C@@H](O)[C@@H](O[C@H]6[C@H](O)[C@@H](O)[C@@H](O[C@H]7[C@H](O)[C@@H](O)[C@@H](O[C@H]1[C@H](O)[C@H]2O)O[C@@H]7CO)O[C@@H]6CO)O[C@@H]5CO)O[C@@H]4CO)O[C@@H]3CO [αCD, α-cyclodextrin]",had no effect on both trypsin and thrombin-induced responses
2,methyl-β-cyclodextrin [mβCD],a dose-dependent suppression of [Ca^2+]i elevation mediated by either trypsin or thrombin
